Where two headings read alike, the source gives them in different places. Marks after values point to notes of the source that are not given here.
Key:
α-glucosidase = α-glucosidase (Saccharomyces cerevisiae, UniProt P53341); assay: α-Glucosidase inhibition assay (pNPG substrate); assay type: biochemical; details: for inhibition at 20 µM: read-out: α-Glucosidase Inhibitory Rate
Description: The α-glucosidase inhibitory activity was measured according to the procedure described in the paper, with slight modifications. […] Immediately, 40 μL PNPG (2.5 mM) was added to each well and reacted at 37 °C for 30 min. […] The total volume of the reaction system was 200 μL. The α-glucosidase inhibition activity was calculated according to the following formula:Inhibition (%) = [1 − (A1 − A2)/(A3 − A4)] × 100(2) A1 = the absorbance of the sample group with α-glucosidase, A2 = the absorbance of the sample control group without α-glucosidase, A3 = the absorbance of the control group without samples, and A4 = the absorbance of the blank control without samples and α-glucosidase.
Results were expressed as IC50 values calculated according to Prism7.0 software.

[1] = ABTS free radical scavenging assay (commercial kit, Trolox standard); details: compounds
Description: (§1) The antioxidant activities of the crude extracts and isolated compounds were evaluated by implementing 2,2-diphenyl-1-picrylhydrazyl free radical scavenging (DPPH^+), 2,2’-azino-bis (3-ethylbenzothiazoline-6-sulphonic free radical scavenging (ABTS^+), and the ferric reducing antioxidant power (FRAP) assay.
(§2) ABTS^+ and FRAP assays were measured by commercial assay kits (Suzhou Comin Biotechnology Co., Ltd., Suzhou, China). The experimental method was determined according to the method used in the literature. The crude extracts and chemical compounds were dissolved in anhydrous ethanol at concentrations of 800 μg/mL and 40 μM. […] Trolox was used as a standard reference compound to quantitate ABTS^+ and FRAP capacity. The results were expressed in µmol Trolox/g or mol Trolox/mol. The standard curve was drawn using Trolox solutions at a range of concentrations.

[2] = DPPH free radical scavenging assay; details: compounds; 30 min, room temperature
Description: as §1
The DPPH^+ assay was measured according to the previous report with slight modifications. […] The DPPH^+ was dissolved with anhydrous methanol to 0.1 mM.
Then 180 μL DPPH solution and 20 μL sample were mixed in each well of a 96-well plate and incubated for 30 min at room temperature in the dark. […] Ascorbic acid was used as a positive control. The DPPH^+ scavenging activity was calculated according to the following formula:Inhibition (%) = [1 − (A1 − A2)/(A3 − A4)] × 100(1) A1 = absorbance of the sample group with DPPH, A2 = absorbance of the sample control group without DPPH, A3 = absorbance of the control group with DPPH, and A4 = the absorbance of the blank control.

[3] = Ferric reducing antioxidant power (FRAP) assay (commercial kit, Trolox standard); details: compounds
Description: as §1, §2

3T3-L1 adipocytes = assay: Glucose uptake in 3T3-L1 adipocytes; assay type: cell-based, mouse
Description: The 3T3-L1 preadipocytes were cultured and differentiated using the method described earlier with slight modifications. The 3T3-L1 preadipocytes were cultured in high glucose DMEM supplemented with 10% NBCS, 1% P/S, and then starved until the cells reached confluence (day 0). Two days later (day 2), the cells were induced for differentiation with high glucose DMEM supplemented with 10% FBS, 1% P/S, IBMX, DEX, Rosi, and insulin. On day 5, the medium was changed to high glucose DMEM containing 10% FBS, 1% P/S, and 100 nM insulin for one day (day 6). Then the cells were completely differentiated into mature adipocytes.
The glucose uptake test was carried out according to the procedure described in the paper. […] After 48 h of culture, the glucose uptake was measured according to the operating instructions of the glucose content determination kit. Following the glucose uptake test, the cell viability was determined using the CellTiter 96® aqueous cell proliferation test. […] Then the absorbance was measured using microplate reader at 490 nm after incubation at 37 °C for 4 h. The cell viability was calculated according to the following formula:Cell viability rate (%) = […] × 100 (3) A1 = the absorbance of the blank control, A2 = the absorbance of each fraction group, each compound group, or positive control group.

Chain of α-glucosidase (P53341 whole entry): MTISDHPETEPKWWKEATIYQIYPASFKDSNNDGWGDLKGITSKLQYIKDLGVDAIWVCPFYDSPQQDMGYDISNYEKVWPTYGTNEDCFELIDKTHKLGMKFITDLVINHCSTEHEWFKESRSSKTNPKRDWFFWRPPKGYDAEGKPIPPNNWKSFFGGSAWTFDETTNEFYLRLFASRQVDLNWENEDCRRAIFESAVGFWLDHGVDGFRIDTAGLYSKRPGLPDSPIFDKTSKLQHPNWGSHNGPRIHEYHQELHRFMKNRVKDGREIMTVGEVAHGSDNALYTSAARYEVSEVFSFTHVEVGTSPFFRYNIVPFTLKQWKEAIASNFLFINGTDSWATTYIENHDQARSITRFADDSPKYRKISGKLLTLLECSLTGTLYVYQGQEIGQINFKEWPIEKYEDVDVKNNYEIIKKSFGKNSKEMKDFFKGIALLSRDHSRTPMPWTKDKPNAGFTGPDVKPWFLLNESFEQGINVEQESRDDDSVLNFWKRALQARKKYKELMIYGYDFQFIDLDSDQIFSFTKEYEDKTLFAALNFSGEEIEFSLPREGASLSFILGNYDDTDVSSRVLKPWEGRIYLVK

Compound	IC50 [2] [µM]	inhibition at 20 µM (α-glucosidase; at a concentration of 20 μM) [%]	α-Glucosidase Inhibitory Rate (α-glucosidase; at a concentration of 20 μM) [%]	ABTS Assay, Trolox equivalents [1]	FRAP Assay, Trolox equivalents [3]	inhibition at 20 µM (α-glucosidase) [%]	glucose uptake in 3T3-L1 adipocytes (3T3-L1 adipocytes; compounds at 20 μM, 48 h, versus control)	glucose uptake rates of 3T3-L1 adipocytes (3T3-L1 adipocytes; positive control group versus control group, p < 0.001)
C[C@H]1O[C@H](O[C@H]2[C@H](O)[C@@H](O)[C@@H](O[C@H]3[C@H](O)[C@@H](O)C(O)O[C@@H]3CO)O[C@@H]2CO)[C@H](O)[C@@H](O)[C@@H]1N[C@H]1C=C(CO)[C@@H](O)[C@H](O)[C@H]1O (some centres unmarked) [Acarbose, reference compound]	–	–	99.4 ± 0.0	–	–	–	–	–
O=C1O[C@H]([C@@H](O)CO)C(O)=C1O [Ascorbic acid, reference compound]	19.8 ± 1.27	–	–	1.66 ± 0.050 ^e mol Trolox/mol	1.68 ± 0.063 ^b mol Trolox/mol	–	–	–
COc1cc(O)cc(O)c1C(C)=O [Compound 1, 4,6-dihydroxy-2-methoxyacetophenone]	> 80	< 50	–	2.40 ± 0.16 ^a mol Trolox/mol	–	–	–	–
O=C(O)/C=C/c1ccc(O)cc1 [Compound 4, p-coumaric acid]	> 80	–	–	2.28± 0.10 ^ab mol Trolox/mol	–	< 50	–	–
COc1cc(-c2cc(=O)c3c(O)cc(O)cc3o2)cc(OC)c1O [Compound 10, tricin]	> 80	–	–	1.64 ± 0.14 ^e mol Trolox/mol	–	20.8 ± 7.3	–	–
O=c1cc(-c2ccc(O)c(O)c2)oc2cc(O[C@@H]3O[C@H](CO)[C@@H](O)[C@H](O)[C@H]3O)cc(O)c12 [Compound 12, luteolin-7-O-β-D-glucopyranoside]	7.28 ± 1.48	–	–	1.86 ± 0.075 ^de mol Trolox/mol	1.31 ± 0.057 ^c mol Trolox/mol	21.9 ± 6	–	–
insulin	–	–	–	–	–	–	–	noticeably promoted

Continued, in another order:

IC50 [2] [µM]	inhibition at 20 µM (α-glucosidase; at a concentration of 20 μM) [%]	Compound	α-Glucosidase Inhibitory Rate (α-glucosidase; at a concentration of 20 μM) [%]	ABTS Assay, Trolox equivalents [1]	FRAP Assay, Trolox equivalents [3]	inhibition at 20 µM (α-glucosidase) [%]	glucose uptake in 3T3-L1 adipocytes (3T3-L1 adipocytes; compounds at 20 μM, 48 h, versus control)	glucose uptake rates of 3T3-L1 adipocytes (3T3-L1 adipocytes; positive control group versus control group, p < 0.001)
> 80	22.6 ± 3.4	COc1cc(OC2OC(CO)C(O)C(O)C2O)cc(O)c1C(C)=O [Compound 2, 4-O-β-D-glucopyranosyl-2-hydroxy-6-methoxyacetophenone]	–	0.87 ± 0.11 ^f mol Trolox/mol	–	–	–	–
> 80	< 50	CC(=O)c1c(O)cc(O)cc1OC1OC(CO)C(O)C(O)C1O [Compound 3, 2,4,6-trihydroxy-acetophenone 2-O-β-D-glucoside]	–	1.97 ± 0.079 ^cd mol Trolox/mol	–	–	–	–
7.41 ± 0.74	< 50	O=C(O)/C=C/c1ccc(O)c(O)c1 [Compound 5, caffeic acid]	–	2.15 ± 0.0619 ^abc mol Trolox/mol	1.73 ± 0.080 ^b mol Trolox/mol	–	weak effect	–
> 80	5.3 ± 1.8	COc1cc(/C=C/C(=O)OCC(O)CO)ccc1O (centres unmarked) [Compound 6, 1-O-feruloylglycerol]	–	1.80 ± 0.0462 ^de mol Trolox/mol	0.012 ± 0.014 ^d mol Trolox/mol	–	–	–
> 80	46.1 ± 2.4	O=C(/C=C/c1ccc(O)cc1)OCC(O)COC(=O)/C=C/c1ccc(O)cc1 [Compound 7, 1,3-O-di-p-coumaroylglycerol]	–	1.99 ± 0.11 ^cd mol Trolox/mol	–	–	–	–
14.8 ± 1.83	67	O=C(/C=C/c1ccc(O)cc1)OCC(O)COC(=O)/C=C/c1ccc(O)c(O)c1 (centres unmarked) [Compound 8, 1-O-p-coumaroyl-3-O-caffeoylglycerol]	–	1.70 ± 0.066 ^e mol Trolox/mol	1.42 ± 0.073 ^c mol Trolox/mol	–	–	–
8.82 ± 1.12	88.8	O=C(/C=C/c1ccc(O)c(O)c1)OCC(O)COC(=O)/C=C/c1ccc(O)c(O)c1 [Compound 9, 1,3-O-dicaffeoylglycerol]	–	2.065 ± 0.050 ^bcd mol Trolox/mol	2.42 ± 0.10 ^a mol Trolox/mol	–	–	–

Reference: article PMC9104508, “Antioxidant, Hypoglycemic and Molecular Docking Studies of Methanolic Extract, Fractions and Isolated Compounds from Aerial Parts of Cymbopogon citratus (DC.) Stapf” (Molecules, 2022)
